# Source: patent EP0721336B1, “BENZAZOLE COMPOUNDS FOR USE IN THERAPY” (CANCER RESEARCH CAMPAIGN TECHNOLOGY LIMITED, priority 1993, dated 1995)
# Like-named read-outs stand apart in the source and are kept apart here. Marks after values point to notes of the source that are not given here.
# What was measured:
# [1] = tested on: MCF-7 mammary carcinoma cells; experiment: In vitro cytotoxicity assay (cell growth, propidium iodide fluorescence); assay type: cell-based, human; conditions: for IC50: Homo sapiens; for effect on cell growth: later series of experiments
# Text: (§1) This is illustrated in Tables 1 and 2 at the end of the present description which show in vitro test results obtained in various sets of experiments for the cytotoxic activity of this compound CJM 126 against a range of human tumour cell lines, expressed in terms of IC50 values (concentration or dosage required to reduce cell growth or proliferation by 50%) calculated from dose-effect curves plotted for cultures of the cells in question.
# (§2) In carrying out the above in vitro studies, the method used for conducting the cytotoxicity assays was generally substantially as follows: • Cells were maintained in a continuous logarithmic culture in Dulbecco's medium supplemented with 10% fetal calf serum and penicillin (100 IU/ml) and streptomycin (100 µg/ml). The cells were mildly trypsinized for passage and for use in assays. On day zero, 100µl of trypsinized tumour cells (1 x 10^4/ml) were plated in the wells of 96-well flat-bottom microtiter plates. […] On day two 50µl of the highest drug concentration was added to the wells of column 12 and from there serially diluted 3-fold to column 1 by serial transfer of 50µl using an 8-channel micropipette. The final volume of column 1 was adjusted to 100µl. No additions were made to the wells of rows A and B, which served as controls. The plates were further incubated for 5 days at 37°C and 5% CO2 in air. Each compound was tested in duplicate. • On day 7 the test was terminated by the addition of 100µl saline containing 0.002% w/v propidium iodide (Sigma), 0.3% drawing ink (Staedtler "Marsmatic 745" - Trade Mark) and 0.5% Triton X-100. The plates were kept at 4°C overnight before reading on an inverted microscope equipped with an automated scanning stage. Fluorescence intensity was measured in arbitrary units by a photomultiplier. An HP-87 computer controlled the movement of the stage and also collected and processed the data from the multiplier. • For each compound tested a dose-response curve was obtained and the IC50 value (the drug concentration at 50% inhibition of cell growth) was calculated.
# 41M ovarian carcinoma = experiment: In vitro cytotoxicity assay; assay type: cell-based; conditions: Homo sapiens; 2nd series of experiments
# Text: as §1, §2
# 41M/CisP = experiment: In vitro cytotoxicity assay; assay type: cell-based; conditions: Homo sapiens; 2nd series of experiments
# Text: as §1, §2
# A204 rhabdomyosarcoma = experiment: In vitro cytotoxicity assay; assay type: cell-based; conditions: Homo sapiens
# Text: as §1, §2
# A2780/CisR = experiment: In vitro cytotoxicity assay; assay type: cell-based; conditions: Homo sapiens, A2780cisR; 2nd series of experiments
# Text: as §1, §2
# CH 1 ovarian carcinoma = experiment: In vitro cytotoxicity assay; assay type: cell-based; conditions: Homo sapiens; 2nd series of experiments
# Text: as §1, §2
# CH 1/CisR = experiment: In vitro cytotoxicity assay; assay type: cell-based; conditions: Homo sapiens, CH1cisR; 2nd series of experiments
# Text: as §1, §2
# HT29 colon carcinoma = experiment: In vitro cytotoxicity assay; assay type: cell-based; conditions: Homo sapiens, HT-29
# Text: as §1, §2
# HX/62 ovarian carcinoma = experiment: In vitro cytotoxicity assay; assay type: cell-based; conditions: Homo sapiens, HX62; 2nd series of experiments
# Text: as §1, §2
# IGR37 melanoma = experiment: In vitro cytotoxicity assay; assay type: cell-based; conditions: Homo sapiens, IGR-37
# Text: as §1, §2
# MCF 7-B (ER+) = experiment: In vitro cytotoxicity assay; assay type: cell-based; conditions: Homo sapiens; 2nd series of experiments
# Text: as §1, §2
# MCF 7-T (ER-) = experiment: In vitro cytotoxicity assay; assay type: cell-based; conditions: Homo sapiens; 2nd series of experiments
# Text: as §1, §2
# [2] = tested on: MDA 231 mammary (EGFR+/erbB3+); experiment: In vitro cytotoxicity assay; assay type: cell-based; conditions: Homo sapiens, MDA-MB-231
# Text: as §1, §2
# SKBR3 mammary (ER-) = experiment: In vitro cytotoxicity assay; assay type: cell-based; conditions: Homo sapiens, SK-BR-3
# Text: as §1, §2
# SKOV-3 ovarian carcinoma = experiment: In vitro cytotoxicity assay; assay type: cell-based; conditions: Homo sapiens, SK-OV-3; 2nd series of experiments
# Text: as §1, §2
# T24 bladder carcinoma = experiment: In vitro cytotoxicity assay; assay type: cell-based; conditions: Homo sapiens
# Text: as §1, §2
# T47D mammary (ER-) = experiment: In vitro cytotoxicity assay; assay type: cell-based; conditions: Homo sapiens, 2nd series of experiments
# Text: as §1, §2
# WiDr colon carcinoma = experiment: In vitro cytotoxicity assay; assay type: cell-based; conditions: Homo sapiens
# Text: as §1, §2
# ZR 75 mammary (ER+) = experiment: In vitro cytotoxicity assay; assay type: cell-based; conditions: Homo sapiens, ZR75
# Text: as §1, §2
# A2780 ovarian carcinoma = experiment: In vitro cytotoxicity assay; assay type: cell-based, human
# Text: as §1, §2
# [3] = tested on: MDA 468 mammary (ER-/EGFR+); experiment: In vitro cytotoxicity assay; assay type: cell-based, human; conditions: Homo sapiens
# Text: as §1, §2
# P388 cells = experiment: In vitro cytotoxicity assay; assay type: cell-based; conditions: Mus musculus
# Experimental: as §2, with “An HP-87 computer controlled the movement of the stage and also collected and processed the data from the multiplier. • For each compound tested a dose-response curve was obtained and the IC50 value (the drug concentration at 50% inhibition of cell growth) was calculated.” left out
# [4] = tested on: P388R8/22 (multidrug resistant) cells; experiment: In vitro cytotoxicity assay; assay type: cell-based
# Experimental: as §2, with “An HP-87 computer controlled the movement of the stage and also collected and processed the data from the multiplier. • For each compound tested a dose-response curve was obtained and the IC50 value (the drug concentration at 50% inhibition of cell growth) was calculated.” left out
# EGFR tyrosine kinase = EGFR tyrosine kinase (Homo sapiens, UniProt P00533); experiment: Western blot analyses with anti-phosphotyrosine primary antibody; assay type: cell-based; conditions: unstimulated or EGF stimulated
# EGFR tyrosine kinase, sequence (P00533 25-1210): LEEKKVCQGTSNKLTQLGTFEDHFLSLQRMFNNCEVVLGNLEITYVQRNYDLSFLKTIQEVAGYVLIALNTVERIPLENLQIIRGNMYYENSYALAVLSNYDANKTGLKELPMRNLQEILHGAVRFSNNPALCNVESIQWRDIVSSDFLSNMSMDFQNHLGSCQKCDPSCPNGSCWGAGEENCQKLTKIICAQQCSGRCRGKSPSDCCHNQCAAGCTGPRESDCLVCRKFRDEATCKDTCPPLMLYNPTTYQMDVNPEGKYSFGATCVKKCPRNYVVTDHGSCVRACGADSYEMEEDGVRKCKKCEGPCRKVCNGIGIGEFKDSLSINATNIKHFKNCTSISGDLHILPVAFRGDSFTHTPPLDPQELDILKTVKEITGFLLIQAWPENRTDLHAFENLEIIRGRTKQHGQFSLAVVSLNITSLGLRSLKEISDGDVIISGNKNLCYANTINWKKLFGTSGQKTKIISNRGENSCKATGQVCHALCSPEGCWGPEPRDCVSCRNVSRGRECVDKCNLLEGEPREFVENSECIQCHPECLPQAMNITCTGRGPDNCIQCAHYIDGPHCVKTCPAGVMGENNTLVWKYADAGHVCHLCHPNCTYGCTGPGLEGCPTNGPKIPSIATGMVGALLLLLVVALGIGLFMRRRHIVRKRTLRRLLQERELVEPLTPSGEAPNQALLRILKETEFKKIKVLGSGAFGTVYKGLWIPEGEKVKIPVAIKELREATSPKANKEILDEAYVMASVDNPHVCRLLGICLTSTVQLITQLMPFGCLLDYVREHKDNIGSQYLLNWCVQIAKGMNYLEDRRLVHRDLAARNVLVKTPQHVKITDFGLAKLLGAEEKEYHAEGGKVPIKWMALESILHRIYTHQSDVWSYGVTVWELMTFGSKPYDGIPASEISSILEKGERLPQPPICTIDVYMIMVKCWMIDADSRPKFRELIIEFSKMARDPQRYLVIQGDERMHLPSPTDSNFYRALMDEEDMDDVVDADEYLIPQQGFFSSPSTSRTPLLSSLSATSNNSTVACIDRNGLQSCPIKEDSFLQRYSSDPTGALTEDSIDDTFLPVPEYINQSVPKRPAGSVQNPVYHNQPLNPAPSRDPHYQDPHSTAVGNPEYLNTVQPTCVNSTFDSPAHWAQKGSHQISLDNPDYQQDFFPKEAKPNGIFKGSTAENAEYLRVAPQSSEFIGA
# MCF-7 mammary carcinoma = experiment: In vivo activity against MCF-7 tumour implanted s.c.; conditions: i.p., 120 mg/kg/day, qd 6, 13, 20
# [5] = 2nd series of experiments, read-out: IC50
compound,measurement,setting,value
"Nc1ccc(-c2nc3ccccc3s2)cc1 [CJM 126, 2-(4-aminophenyl)benzothiazole]",IC50,"[1]; MCF7, 1st series of experiments, initial decrease in cell growth, read-out: IC50",~0.002 µg/mL
same,IC50,"[1]; MCF7, MCF 7-wt, phase 1, after drug removal, read-out: observed IC50 after drug removal",0.00218 µM
same,IC50,"[1]; MCF7, MCF 7-wt, read-out: estimated IC50",~0.0029 µM
same,IC50,"[1]; MCF7, first series of experiments, second decrease at even greater doses, read-out: IC50 of second decrease (biphasic dose response)",~2 µg/mL
same,IC50,"[1]; MCF-wt, column A, read-out: MCF-wt A IC50 at sub-micromolar concentrations",0.003 µM
same,inhibition of growth,"[1]; MCF 7-wt, 1% FCS, presence of EGF, all concentrations 1nM-10µM",greater than 85%
same,times more sensitive than other human cell lines tested,"[1]; first series of experiments, Table 1",about 3000 times
same,estimated IC50,[1]; in the presence of 1% FCS,picomolar range
same,proliferation of colonies (2nd phase),"[1]; in the presence of 1% FCS, 3, 10, 30µM",no proliferation of colonies
same,effect on cell growth,[1]; 30nM and 100nM,maximum growth inhibition
same,effect on cell growth,"[1]; exposure to 1µM, 3µM and 10µM",loss of growth arrest
same,IC50,41M ovarian carcinoma,36 µM
same,IC50,41M/CisP,40 µM
same,IC50,A204 rhabdomyosarcoma; 1st series of experiments,5.94 µg/mL
same,IC50,A204 rhabdomyosarcoma; 2nd series of experiments,26 µM
same,IC50,A2780/CisR,37 µM
same,IC50,CH 1 ovarian carcinoma,22 µM
same,IC50,CH 1/CisR,33 µM
same,IC50,HT29 colon carcinoma; 1st series of experiments,7.57 µg/mL
same,IC50,HT29 colon carcinoma; 2nd series of experiments,33 µM
same,IC50,HX/62 ovarian carcinoma,120 µM
same,IC50,IGR37 melanoma; 1st series of experiments,24 µg/mL
same,IC50,IGR37 melanoma; 2nd series of experiments,106 µM
same,IC50,MCF 7-B (ER+),62.2 µM
same,IC50,MCF 7-T (ER-),12.9 µM
same,IC50,[2]; [5],0.017 µM
same,IC50,"[2]; MDA 231, read-out: estimated IC50",~0.0172 µM
same,IC50,SKBR3 mammary (ER-); [5],0.026 µM
same,IC50,"SKBR3 mammary (ER-); SKBR3, read-out: estimated IC50",~0.0259 µM
same,IC50,SKOV-3 ovarian carcinoma,64 µM
same,IC50,T24 bladder carcinoma; 1st series of experiments,16.9 µg/mL
same,IC50,T24 bladder carcinoma; 2nd series of experiments,75 µM
same,IC50,T47D mammary (ER-),44.1 µM
same,IC50,WiDr colon carcinoma; 1st series of experiments,6.01 µg/mL
same,IC50,WiDr colon carcinoma; 2nd series of experiments,26 µM
same,IC50,ZR 75 mammary (ER+); [5],0.028 µM
same,IC50,"ZR 75 mammary (ER+); ZR 75, read-out: estimated IC50",~0.0247 µM
same,IC50,A2780 ovarian carcinoma; 2nd series of experiments,43 µM
same,IC50,"A2780 ovarian carcinoma; Homo sapiens, A2780, 1st series of experiments",8.83 µg/mL
same,IC50,"A2780 ovarian carcinoma; Homo sapiens, A2780, 2nd series of experiments",39 µM
same,IC50,"[3]; MDA 468, read-out: estimated IC50",~0.0016 µM
same,IC50,"[3]; column A, read-out: MDA 468 A IC50 at sub-micromolar concentrations",0.0016 µM
same,IC50,[3]; [5],0.0016 µM
same,IC50,P388 cells,27 µM
same,IC50,[4],52 µM
same,inhibition of EGFR tyrosine kinase activity,EGFR tyrosine kinase,no apparent inhibition
same,Relative tumour volume (T/C%),MCF-7 mammary carcinoma; d9,84%
same,Relative tumour volume (T/C%),MCF-7 mammary carcinoma; d13,47* %
same,Relative tumour volume (T/C%),MCF-7 mammary carcinoma; d20,38* %
same,Relative tumour volume (T/C%),MCF-7 mammary carcinoma; d27,27* %
same,Relative tumour volume (T/C%),MCF-7 mammary carcinoma; d35,27* %
same,Relative tumour volume (T/C%),MCF-7 mammary carcinoma; d43,43* %
same,BWC (%),MCF-7 mammary carcinoma; relative to saline treated animals,-13%
